According to patent US8765949B2, “CCR2 receptor antagonists and uses thereof” (Boehringer Ingelheim International GmbH, priority 2009, dated 2014):

molecular target: T1, CCR2 (Homo sapiens, UniProt P41597); test: CCR2 receptor membrane binding assay ([125I]MCP-1, THP-1 membranes, SPA beads); conditions: dissociation constant hKi; THP-1 cell membranes, [125I]MCP-1, bound radioactivity after 8 h
T1 construct: Membranes were prepared from THP-1 cells; endogenous in cells; host or cells: THP-1 (human acute monocytic leukaemia cells), membrane preparation
T1 sequence (P41597 1-360 isoform P41597-2): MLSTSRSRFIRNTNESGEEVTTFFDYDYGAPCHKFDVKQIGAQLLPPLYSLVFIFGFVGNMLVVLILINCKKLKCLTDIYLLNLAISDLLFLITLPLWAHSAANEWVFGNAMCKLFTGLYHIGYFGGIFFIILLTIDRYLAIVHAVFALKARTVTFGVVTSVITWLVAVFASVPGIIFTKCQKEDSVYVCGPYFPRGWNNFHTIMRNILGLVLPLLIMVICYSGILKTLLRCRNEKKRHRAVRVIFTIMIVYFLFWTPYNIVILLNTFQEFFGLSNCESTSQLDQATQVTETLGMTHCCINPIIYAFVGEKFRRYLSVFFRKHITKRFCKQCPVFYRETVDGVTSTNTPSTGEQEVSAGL
Method: The above exemplary substances have been tested for binding to CCR2 using a binding assay as outlined herein below:
THP-1 cells (human acute monocytic leukaemia cells) were cultured under standardized conditions at 37° C. and 5% CO2 in a humidified incubator. THP-1 cells were cultivated in RPMI 1640 medium (Gibco 21875) containing 1% MEM-NEAA (Gibso 11140) 2 mM L-glutamine, 1.5 g/L sodium bicarbonate, 4.5 g/L glucose, 10 mM HEPES and 1.0 mM sodium pyruvate, 90%; 10% fetal calf serum (FCS Gibco 10500-064).
Membranes were prepared from THP-1 cells. THP-1 cells were centrifuged at 300×g at 4° C. for 10 min. The cell pellet was resuspendet in Phosphate Buffer Saline (PBS, including 10 μM Pefabloc and a protease inhibitor mix ‘complete’, Boehringer Mannheim (1 tablet/50 ml)), to a concentration of […]. The membrane preparation was performed by disrupting the cells by nitrogen […] (at 50 bar, for 1 h) in a “Nitrogen Bombe” (Parr Instrument). Cell debris was removed by centrifugation (800×g at 4° C., 1 min). The supernatant was centrifuged at 80000×g, 4° C. for 30 min to sediment the cell membranes. Usually 50 mg of protein (Bradford assay) were yielded from 1×10E9 cells. The membranes were resuspendet in 25 mM HEPES, 25 mM MgCl2, 1 mM CaCl2, 10% Glycerine for storage in aliquots at −80° C. in 25 mM HEPES, 25 mM MgCl2, 1 mM CaCl2, 10% Glycerine and stored at −80° C.
Receptor Membrane Binding Assay:
Perkin Elmer NEX 332 Jod 125 MCP-1, Stock: 2200 Ci/mmol solved in 2000 μl assay buffer, stored at −20° C. THP-1 membrane were adjusted with 25 mM HEPES, pH 7.2; 5 mM MgCl2; 0.5 mM CaCl2; 0.2% BSA assay buffer to a concentration of 2.5 μg/15 μl. Amersham Biosciences PVT-WGA Beads (RPNQ0001) were adjusted with assay buffer to a concentration of 0.24 mg/30 μl. For preparation of the membrane-bead-suspension membranes and beads were incubated for 30 min at RT under rotation (60 rpm) with a ratio of 1:2. Test compounds dissolved in 100% DMSO to a concentration of 10 mM and are further diluted with 100% DMSO to 1 mM. All additional compound dilutions were obtained with assay buffer, final 1% DMSO. Compounds, membrane-bead-suspension and [125I]MCP-1 (ca. 25000 cpm/10 μl) were incubated. Bound radioactivity was determined by scintillation counter after 8 h. Determination of affinity of test compounds (dissociation constant hKi) is calculated by iterative fitting of experimental data using the “easy sys” program, which is based on law of mass action (Schittkowski K. (1994), Numerische Mathematik, Vol. 68, 129-142).

| SMILES | Ki |
| --- | --- |
| Cc1c(NC[C@@H]2CCC[C@H](c3ccccc3)O2)ncnc1C(=O)N1CCC(N2CCC(N(C)S(C)(=O)=O)CC2)CC1 (single isomer, unassigned) [Example 12] | 27 nM |
| Cc1c(NC[C@@H]2CCC[C@H](c3ccccc3)O2)ncnc1C(=O)N1CCC(N2CCC(N(C)S(C)(=O)=O)CC2)CC1 (single isomer, unassigned) [Example 13] | 486 nM |
| Cc1ccc([C@@H]2CCC[C@H](CNc3ncnc(C(=O)N4CCC(N5CCC(N(C)S(C)(=O)=O)CC5)CC4)c3C)O2)cc1 [Example 1] | 8 nM |
| Cc1c(NC[C@@H]2CCC[C@H](c3ccc(C(F)(F)F)cc3)O2)ncnc1C(=O)N1CCC(N2CCC(N(C)S(C)(=O)=O)CC2)CC1 [Example 2] | 151 nM |
| COC1CCN(C2CCN(C(=O)c3ncnc(NC[C@@H]4CCC[C@H](c5cccc(C(F)(F)F)c5)O4)c3C)CC2)CC1 [Example 3] | 203 nM |
| COC1CCN(C2CCN(C(=O)c3ncnc(NC[C@H]4CCC[C@@H](c5ccc(C(F)(F)F)cc5)O4)c3C)CC2)CC1 [Example 4] | 26 nM |
| Cc1c(NC[C@@H]2CCC[C@H](c3ccc(Cl)cc3)O2)ncnc1C(=O)N1CCC(N2CCC(N(C)S(C)(=O)=O)CC2)CC1 [Example 6] | 190 nM |
| Cc1c(NC[C@@H]2CCC[C@H](c3cccc(C(F)(F)F)c3)O2)ncnc1C(=O)N1CCC(N2CCC(N(C)S(C)(=O)=O)CC2)CC1 [Example 7] | 36 nM |
| Cc1c(NC[C@H]2CCC[C@@H](c3cccc(C(F)(F)F)c3)O2)ncnc1C(=O)N1CCC(N2CCC(N(C)S(C)(=O)=O)CC2)CC1 [Example 8] | 185 nM |
| Cc1ccc([C@@H]2CCC[C@H](CNc3ncnc(C(=O)N4CCC(N5CCC(NS(C)(=O)=O)CC5)CC4)c3C)O2)cc1 [Example 9] | 13 nM |
| Cc1c(NCC2CCCC(c3ccccc3)O2)ncnc1C(=O)N1CCC(N2CCC(N(C)S(C)(=O)=O)CC2)CC1 (centres unmarked) [Example 10] | 142 nM |
| Cc1c(NC[C@H]2CCC[C@@H](c3ccccc3)O2)ncnc1C(=O)N1CCC(N2CCC(N(C)S(C)(=O)=O)CC2)CC1 [Example 11] | 53 nM |
| Cc1c(NCC2CCCC(c3ccc(F)cc3)O2)ncnc1C(=O)N1CCC(N2CCC(N(C)S(C)(=O)=O)CC2)CC1 (centres unmarked) [Example 14] | 479 nM |
| Cc1c(NCC2CCCC(c3ccc(Cl)cc3)O2)ncnc1C(=O)N1CCC(N2CCC(N(C)S(C)(=O)=O)CC2)CC1 (centres unmarked) [Example 15] | 24 nM |
| Cc1ccc([C@@H]2CCC[C@H](CNc3ncnc(C(=O)N4CCC(N5CCC(N(C)S(C)(=O)=O)CC5)CC4)c3C)O2)cc1 [Example 17] | 11 nM |
| Cc1ccc([C@@H]2CCC[C@H](CNc3nc(C)nc(C(=O)N4CCC(N5CCC(N(C)S(C)(=O)=O)CC5)CC4)c3C)O2)cc1 [Example 18] | 10 nM |
| Cc1ccc([C@H]2CCC[C@@H](CNc3ncnc(C(=O)N4CCC(N5CCC(N(C)S(C)(=O)=O)CC5)CC4)c3C)O2)cc1 [Example 19] | 162 nM |
| Cc1ccc([C@@H]2CCC[C@H](CNc3nc(C)nc(C(=O)N4CCC(N5CCC(N(C)S(C)(=O)=O)CC5)CC4)c3C)O2)cc1 [Example 20] | 11 nM |
| Cc1cccc([C@@H]2CCC[C@H](CNc3ncnc(C(=O)N4CCC(N5CCC(N(C)S(C)(=O)=O)CC5)CC4)c3C)O2)c1 [Example 21] | 11 nM |
| Cc1cccc([C@@H]2CCC[C@H](CNc3nc(C)nc(C(=O)N4CCC(N5CCC(N(C)S(C)(=O)=O)CC5)CC4)c3C)O2)c1 [Example 22] | 11 nM |
| Cc1cccc([C@H]2CCC[C@@H](CNc3ncnc(C(=O)N4CCC(N5CCC(N(C)S(C)(=O)=O)CC5)CC4)c3C)O2)c1 [Example 23] | 494 nM |
| Cc1c(NC[C@H]2CCC[C@@H](c3ccc(C(F)(F)F)cc3)O2)ncnc1C(=O)N1CCC(N2CCC(N(C)S(C)(=O)=O)CC2)CC1 [Example 24] | 4 nM |

| SMILES | Ki |
| --- | --- |
| Cc1c(NC[C@H]2CCC[C@@H](c3ccc(C(F)(F)F)nc3)O2)ncnc1C(=O)N1CCC(N2CCC(N(C)S(C)(=O)=O)CC2)CC1 [Example 25] | 418 nM |
| Cc1c(NC[C@H]2CCC[C@@H](c3ccc(OC(F)(F)F)cc3)O2)ncnc1C(=O)N1CCC(N2CCC(N(C)S(C)(=O)=O)CC2)CC1 [Example 26] | 6 nM |
| CCS(=O)(=O)N(C)C1CCN(C2CCN(C(=O)c3ncnc(NC[C@H]4CCC[C@@H](c5ccc(Cl)cc5)O4)c3C)CC2)CC1 [Example 27] | 12 nM |
| Cc1cccc([C@H]2CCC[C@@H](CNc3nc(C)nc(C(=O)N4CCC(N5CCC(N(C)S(C)(=O)=O)CC5)CC4)c3C)O2)c1 [Example 28] | 658 nM |
| Cc1c(NC[C@@H]2CCC[C@H](c3cccc(C(F)(F)F)c3)O2)ncnc1C(=O)N1CCC(N2CCC(N(C)S(C)(=O)=O)CC2)CC1 [Example 28a] | 45 nM |
| Cc1c(NCC2CCCC(c3ccc(C(F)(F)F)o3)O2)ncnc1C(=O)N1CCC(N2CCC(N(C)S(C)(=O)=O)CC2)CC1 (centres unmarked) [Example 28b] | 0.5 nM |
| COC1COCCC1NC1CCN(C(=O)c2ncnc(NC[C@@H]3CCC[C@H](c4ccc(C)c(F)c4)O3)c2C)CC1 (some centres unmarked) [Example 28c] | 0.4 nM |
| Cc1ccc([C@H]2CCC[C@@H](CNc3ncnc(C(=O)N4CCC(N5CCC(N(C)S(C)(=O)=O)CC5)CC4)c3C)O2)cc1F [Example 28d] | 12 nM |
| COC1COCCC1NC1CCN(C(=O)c2ncnc(NCC3CCCC(c4ccc(C(F)(F)F)o4)O3)c2C)CC1 (centres unmarked) [Example 28e] | 20 nM |
| Cc1c(NC[C@@H]2CCC[C@H](c3ccc(C(C)(C)C#N)cc3)O2)ncnc1C(=O)N1CCC(N2CCC(N(C)S(C)(=O)=O)CC2)CC1 [Example 28f] | 78 nM |
| Cc1ccc([C@@H]2CCC[C@H](CNc3cc(C(=O)N4CCC(N5CCC(N(C)S(C)(=O)=O)CC5)CC4)ncn3)O2)cc1 [Example 28g] | 8 nM |
| CO[C@H]1COCC[C@H]1NC1CCN(C(=O)c2cc(NC[C@H]3CCC[C@@H](c4ccc(C)cc4)O3)ncn2)CC1 [Example 28h] | 4 nM |
| CO[C@@H]1COCC[C@@H]1NC1CCN(C(=O)c2cc(NC[C@H]3CCC[C@@H](c4ccc(C)cc4)O3)ncn2)CC1 [Example 28i] | 221 nM |
| CO[C@@H]1COCC[C@@H]1NC1CCN(C(=O)c2cc(NC[C@H]3CCC[C@@H](c4ccc(C(F)(F)F)cc4)O3)ncn2)CC1 [Example 28j] | 1 nM |
| CO[C@H]1COCC[C@H]1NC1CCN(C(=O)c2cc(NC[C@H]3CCC[C@@H](c4ccc(C(F)(F)F)cc4)O3)ncn2)CC1 [Example 28k] | 3 nM |
| CO[C@H]1COCC[C@H]1NC1CCN(C(=O)c2cc(NC[C@H]3CCC[C@@H](c4ccc(OC(F)(F)F)cc4)O3)ncn2)CC1 [Example 28l] | 2 nM |
| CO[C@@H]1COCC[C@@H]1NC1CCN(C(=O)c2cc(NC[C@H]3CCC[C@@H](c4ccc(OC(F)(F)F)cc4)O3)ncn2)CC1 [Example 28m] | 1 nM |
| COc1cc(NC[C@H]2CCC[C@@H](c3ccc(C)cc3)O2)cc(C(=O)N2CCC(N[C@H]3CCOC[C@H]3OC)CC2)n1 [Example 28n] | 38 nM |
| CO[C@@H]1COCC[C@@H]1NC1CCN(C(=O)c2ncnc(NC[C@H]3CCC[C@@H](c4ccc(C)cc4)O3)c2C)CC1 [Example 29] | 4 nM |
| CO[C@H]1COCC[C@H]1NC1CCN(C(=O)c2ncnc(NC[C@H]3CCC[C@@H](c4ccc(C)cc4)O3)c2C)CC1 [Example 30] | 5 nM |
| CO[C@H]1COCC[C@H]1NC1CCN(C(=O)c2ncnc(NC[C@@H]3CCC[C@H](c4ccc(C)cc4)O3)c2C)CC1 [Example 31] | 276 nM |
| CO[C@H]1COCC[C@H]1NC1CCN(C(=O)c2ncnc(NC[C@@H]3CCC[C@H](c4cccc(C)c4)O3)c2C)CC1 [Example 32] | 333 nM |
